In US6632829B2, “Sulfonamides and derivatives thereof that modulate the activity of endothelin” (Texas Biotechnology Corp., priority 1996, dated 2003):
Several values for one entry are separate records, joined by “and”; a condition that tells them apart may be missing. Identical values can stand only once. Counter-ions that a name gives are not always drawn.

Molecular target: T1, human ETA receptors (Homo sapiens, UniProt P25101)
T1 construct: endogenous in cells; host or cells: TE 671 cells (ATCC HTB 139), membrane preparation
T1 sequence (P25101 21-427): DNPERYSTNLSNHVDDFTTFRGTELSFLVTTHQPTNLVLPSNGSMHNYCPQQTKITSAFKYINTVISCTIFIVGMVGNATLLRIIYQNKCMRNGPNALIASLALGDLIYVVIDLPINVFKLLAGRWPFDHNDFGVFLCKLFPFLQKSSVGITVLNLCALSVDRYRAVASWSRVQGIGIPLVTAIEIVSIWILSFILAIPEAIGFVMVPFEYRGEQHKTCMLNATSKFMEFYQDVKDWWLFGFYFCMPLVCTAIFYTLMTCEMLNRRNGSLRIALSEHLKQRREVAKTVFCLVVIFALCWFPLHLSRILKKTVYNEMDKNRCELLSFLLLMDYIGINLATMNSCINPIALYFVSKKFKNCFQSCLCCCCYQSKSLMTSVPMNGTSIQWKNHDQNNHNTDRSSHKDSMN
Assay: Endothelin binding inhibition, Binding Test #1: competition with 125I-ET-1 for ETA receptors on TE 671 cell membranes
Conditions: incubation at 24° C. (values marked †)
Experimental: Cells from multiple flasks were collected by scraping, pooled and centrifuged for 10 min at 190×g. The cells were resuspended in phosphate buffered saline (PBS) containing 10 mM EDTA using a Tenbroeck homogenizer. The suspension was centrifuged at 4° C. at 57,800×g for 15 min, the pellet was resuspended in 5 mL of buffer A (5 mM HEPES buffer, pH 7.4 containing aprotinin (100 KIU/mL)) and then frozen and thawed once. 5 mL of Buffer B (5 mM HEPES Buffer, pH 7.4 containing 10 mM MnCl2 and 0.001% deoxyribonuclease Type 1) was added, the suspension mixed by inversion and then incubated at 37° C. for 30 minutes. The mixture was centrifuged at 57,800×g as described above, the pellet washed twice with buffer A and then resuspended in buffer C (30 mM HEPES buffer, pH 7.4 containing aprotinin (100 KIU/mL) to give a final protein concentration of 2 mg/mL and stored at −70° C. until use.
The membrane suspension (50 μL), containing up to 8 μg of membrane protein, was added to each of (A), (B), or (C). […] Alternatively, the incubation was conducted at 24° C.
The supernatant, containing unbound radioactivity, was decanted and the pellet counted on a Genesys multiwell gamma counter. The degree of inhibition of binding (D) was calculated according to the following equation: [formula]
Each test was generally performed in triplicate.

Q: COc1ccc(OC(=O)c2sccc2S(=O)(=O)Nc2onc(C)c2C)cc1 [N-(3,4-dimethyl-5-isoxazolyl)-2-[(4-methoxylphenoxy)carbonyl]thiophene-3-sulfonamide] was tested. Which IC50 did it give?
A: 5880 nM and 2500 nM

Q: How did the IC50 turn out when CC(=O)c1cc2c(cc1NC(=O)c1sccc1S(=O)(=O)Nc1onc(C)c1C)OCO2 [N-(3,4-dimethyl-5-isoxazolyl)-2-{[2-acetyl-4,5-(methylenedioxy)phenyl]aminocarbonyl}thiophene-3-sulfonamide] was run?
A: 32 nM

Q: Cc1noc(NS(=O)(=O)c2ccsc2C(N)=O)c1Br [N-(4-bromo-3-methyl-5-isoxazolyl)-2-(aminocarbonyl)thiophene-3-sulfonamide] was tested. Which IC50 did it give?
A: 840 nM

Q: Cc1noc(NS(=O)(=O)c2ccsc2CCc2ccc3c(c2)OCO3)c1Br [N-(4-bromo-3-methyl-5-isoxazolyl)-2-[(3,4-methylenedioxy)phenethyl]thiophene-3-sulfonamide] was tested. Which IC50 did it give?
A: 210 nM

Q: COc1cccc(-c2ccsc2S(=O)(=O)Nc2onc(C)c2Br)c1 [N-(4-bromo-3-methyl-5-isoxazolyl)-3-(3-methoxyphenyl)thiophene-2-sulfonamide] was tested. Which IC50 did it give?
A: 334 nM

Q: For Cc1noc(NS(=O)(=O)c2ccsc2C(=O)Nc2cc3c(cc2C(=O)O)OCO3)c1Cl [N-(4-chloro-3-methyl-5-isoxazolyl)2-{[2-carboxyl-4,5-(methylenedioxy)phenyl]aminocarbonyl}thiophene-3-sulfonamide], which IC50 is on record?
A: 1430 nM

Q: Cc1cc(C)c(NC(=O)c2sccc2S(=O)(=O)Nc2onc(C)c2Cl)c(C)c1CN(C)C [N-(4-chloro-3-methyl-5-isoxazolyl)-2-(3-dimethylaminomethyl-2,4,6-trimethylphenylaminocarbonyl)thiophene-3-sulfonamide, trifluoroacetic acid salt] was tested. Which IC50 did it give?
A: 13.4 nM

Q: For Cc1cc2c(cc1C(CC(=O)O)C(=O)c1sccc1S(=O)(=O)Nc1onc(C)c1Cl)OCO2 (stereo not drawn) [N-(4-chloro-3-methyl-5-isoxazolyl)-2-(α-carboxylmethyl-2-methyl-4,5-(methylenedioxy)phenylacetyl)thiophene-3-sulfonamide], which IC50 is on record?
A: 81.1 nM

Q: With Cc1cc2c(cc1C(C)C(=O)c1sccc1S(=O)(=O)Nc1onc(C)c1Cl)OCO2 (stereo not drawn) [N-(4-chloro-3-methyl-5-isoxazolyl)-2-(α-methyl-2-methyl-4,5-(methylenedioxy)phenylacetyl)thiophene-3-sulfonamide] as the compound, how does the IC50 read?
A: 85.3 nM

Q: With Cc1ccc(NC(=O)c2sccc2S(=O)(=O)Nc2onc(C)c2Cl)c(O)c1 [N-(4-chloro-3-methyl-5-isoxazolyl)-2-[2-hydroxy-4-methylphenyl)aminocarbonyl]thiophene-3-sulfonamide] as the compound, how does the IC50 read?
A: 6 nM

Q: With Cc1nnc(NC(=O)c2sccc2S(=O)(=O)Nc2onc(C)c2Cl)s1 [N-(4-chloro-3-methyl-5-isoxazolyl)-2-[(2-methyl-1,3,4-thiadiazol-5-yl)aminocarbonyl]thiophene-3-sulfonamide] as the compound, how does the IC50 read?
A: 130 nM

Q: For COC(=O)c1cc(OC)c(OC)cc1NC(=O)c1sccc1S(=O)(=O)Nc1onc(C)c1Cl [N-(4-chloro-3-methyl-5-isoxazolyl)-2-[(4,5-dimethoxy-2-methoxycarbonylphenyl)aminocarbonyl]thiophene-3-sulfonamide], which IC50 is on record?
A: 550 nM

Q: Which IC50 does the source give for Cc1noc(NS(=O)(=O)c2ccsc2C(=O)OC2CCOCC2)c1Cl [N-(4-chloro-3-methyl-5-isoxazolyl)-2-[(4-oxacyclohexyl)oxycarbonyl]thiophene-3-sulfonamide] here?
A: 1370 nM
